Columns and labels:
[1] = background; cited from earlier work
[2] = Color of the solvent; type: physicochemical; details: Table 2, solvent
[3] = Viscosity of the solvent; type: physicochemical; details: 100° F; Table 2
[4] = Acute toxicity (LD50, per oral and cutaneous); type: in vivo, Strain ICR-JCL Mice; details: ICR-JCL mice
Text: Used as test animal are Strain ICR-JCL Mice (Nippon Clea Co., Ltd.)

Row | Viscosity [3] [cst] | Compound | accumulation in the bodies of many animals [1] | Color [2] | LD50 Cutaneous [4] [mL/kg] | LD50 Per Oral [4] [mL/kg] | biodegradability [1]
1 | – | ClC1C(Cl)C(Cl)C(Cl)C(Cl)C1Cl (centres unmarked) [BHC] | accumulates | – | – | – | –
2 | – | Clc1ccc(C(c2ccc(Cl)cc2)C(Cl)(Cl)Cl)cc1 [DDT] | accumulates | – | – | – | –
3 | 3.6 | diethylnaphthalene [Diethyl-] | – | None | – | – | –
4 | 5.1 | dimethylpropylnaphthalene [Dimethyl propyl] | – | None | – | – | –
5 | 5.2 | ethylpropylnaphthalene [Ethyl propyl] | – | None | – | – | –
6 | 5.0 | methylbutylnaphthalene [Methyl Butyl] | – | None | – | – | –
7 | – | polychlorobiphenyl [PCB, reference compound] | accumulates | None | 1.25 | 1.7 | low biodegradability

Row | Compound | Viscosity [3] [cst] | accumulation in the bodies of many animals [1] | Color [2] | LD50 Cutaneous [4] [mL/kg] | LD50 Per Oral [4] [mL/kg] | biodegradability [1]
8 | butylnaphthalene [Butyl-naphthalene] | 4.2 | – | None | – | – | –
9 | dipropylnaphthalene | 8.5 | – | None | ≥ 30 | 9.5 | –
10 | methylpropylnaphthalene [Methyl propyl] | 4.0 | – | None | – | – | –

Reference: patent US4003589A, “Carbonless copying paper” (Kureha Kagaku Kogyo Kabushiki Kaisha, priority 1970, dated 1977)
